Assay results: patent US9493478B2, “Fused ring compound containing furan or salt thereof and pharmaceutical composition comprising same” (YUHAN CORPORATION, priority 2012, dated 2016)

Tests used:
Format in all cases: biochemical
PI3K β (p110β/p85α)(h) = PI3K β (p110β/p85α)(h) (Homo sapiens, UniProt P42338); assay: Assay for phosphatidylinositol 3-kinase beta (PI3Kβ) activity, PI3K-HTRF kit; conditions: TR-FRET; enzyme 0.725 μg/ml, 10 μM PIP2, 10 μM ATP
PI3Kδ (p110δ/p85α)(h) = PI3Kδ (p110δ/p85α)(h) (Homo sapiens, UniProt O00329); assay: Assay for phosphatidylinositol 3-kinase delta (PI3Kδ) activity, PI3K-HTRF kit; conditions: TR-FRET; enzyme 0.725 μg/ml, 10 μM PIP2, 10 μM ATP
Chain of PI3Kδ (p110δ/p85α)(h) (O00329 whole entry): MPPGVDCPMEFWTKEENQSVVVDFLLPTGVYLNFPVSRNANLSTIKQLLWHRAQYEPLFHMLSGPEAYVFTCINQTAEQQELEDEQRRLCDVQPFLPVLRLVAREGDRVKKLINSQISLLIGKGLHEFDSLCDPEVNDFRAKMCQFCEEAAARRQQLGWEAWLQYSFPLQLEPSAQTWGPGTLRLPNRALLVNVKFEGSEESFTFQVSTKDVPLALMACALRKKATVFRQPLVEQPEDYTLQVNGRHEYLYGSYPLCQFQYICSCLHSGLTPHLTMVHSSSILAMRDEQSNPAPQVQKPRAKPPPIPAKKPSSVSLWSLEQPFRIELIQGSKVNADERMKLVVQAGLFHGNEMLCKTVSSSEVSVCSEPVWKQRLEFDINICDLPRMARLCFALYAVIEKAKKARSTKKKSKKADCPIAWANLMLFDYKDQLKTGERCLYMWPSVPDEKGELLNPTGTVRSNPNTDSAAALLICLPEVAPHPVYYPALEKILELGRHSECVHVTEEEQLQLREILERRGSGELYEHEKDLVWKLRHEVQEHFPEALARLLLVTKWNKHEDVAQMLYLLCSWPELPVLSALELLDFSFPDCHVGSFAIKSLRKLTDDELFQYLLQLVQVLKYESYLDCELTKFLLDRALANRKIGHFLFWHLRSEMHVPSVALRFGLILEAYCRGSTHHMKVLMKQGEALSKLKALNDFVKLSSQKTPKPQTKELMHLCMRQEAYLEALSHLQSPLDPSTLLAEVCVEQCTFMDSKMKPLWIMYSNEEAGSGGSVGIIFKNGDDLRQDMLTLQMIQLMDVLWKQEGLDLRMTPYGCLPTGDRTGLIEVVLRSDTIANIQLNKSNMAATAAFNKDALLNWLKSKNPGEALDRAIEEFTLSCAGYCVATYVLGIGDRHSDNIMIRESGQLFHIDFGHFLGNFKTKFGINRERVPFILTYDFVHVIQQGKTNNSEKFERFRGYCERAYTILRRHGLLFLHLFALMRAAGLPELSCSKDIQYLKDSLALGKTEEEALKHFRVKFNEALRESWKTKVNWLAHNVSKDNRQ
Chain of PI3Kδ (p110δ/p85α)(h) (P27986 whole entry partner): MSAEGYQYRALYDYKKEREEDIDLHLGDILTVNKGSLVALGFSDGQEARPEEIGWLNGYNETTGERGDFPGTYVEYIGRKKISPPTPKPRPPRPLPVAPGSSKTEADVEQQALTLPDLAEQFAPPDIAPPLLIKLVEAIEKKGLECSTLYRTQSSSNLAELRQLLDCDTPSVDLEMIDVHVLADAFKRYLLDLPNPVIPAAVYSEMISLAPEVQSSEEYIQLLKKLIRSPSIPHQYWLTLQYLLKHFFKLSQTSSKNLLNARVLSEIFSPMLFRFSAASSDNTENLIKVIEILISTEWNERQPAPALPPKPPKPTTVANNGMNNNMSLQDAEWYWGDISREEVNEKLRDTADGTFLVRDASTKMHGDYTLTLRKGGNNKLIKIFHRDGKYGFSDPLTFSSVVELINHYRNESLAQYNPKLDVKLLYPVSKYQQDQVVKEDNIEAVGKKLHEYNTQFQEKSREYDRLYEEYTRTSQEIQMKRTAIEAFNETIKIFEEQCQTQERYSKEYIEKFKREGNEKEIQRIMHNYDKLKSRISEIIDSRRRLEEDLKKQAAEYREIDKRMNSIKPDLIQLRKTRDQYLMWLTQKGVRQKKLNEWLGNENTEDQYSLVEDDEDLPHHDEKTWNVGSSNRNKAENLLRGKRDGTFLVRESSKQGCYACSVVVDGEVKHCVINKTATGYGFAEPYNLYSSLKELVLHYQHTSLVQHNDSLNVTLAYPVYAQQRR

PI3Kγ (p120γ)(h) = PI3Kγ (p120γ)(h) (Homo sapiens, UniProt P48736); assay: Assay for phosphatidylinositol 3-kinase gamma (PI3Kγ) activity, PI3K-HTRF kit; conditions: TR-FRET; enzyme 1.45 μg/ml, 10 μM PIP2, 10 μM ATP
Chain of PI3Kγ (p120γ)(h) (P48736 whole entry, the tested form may be a part): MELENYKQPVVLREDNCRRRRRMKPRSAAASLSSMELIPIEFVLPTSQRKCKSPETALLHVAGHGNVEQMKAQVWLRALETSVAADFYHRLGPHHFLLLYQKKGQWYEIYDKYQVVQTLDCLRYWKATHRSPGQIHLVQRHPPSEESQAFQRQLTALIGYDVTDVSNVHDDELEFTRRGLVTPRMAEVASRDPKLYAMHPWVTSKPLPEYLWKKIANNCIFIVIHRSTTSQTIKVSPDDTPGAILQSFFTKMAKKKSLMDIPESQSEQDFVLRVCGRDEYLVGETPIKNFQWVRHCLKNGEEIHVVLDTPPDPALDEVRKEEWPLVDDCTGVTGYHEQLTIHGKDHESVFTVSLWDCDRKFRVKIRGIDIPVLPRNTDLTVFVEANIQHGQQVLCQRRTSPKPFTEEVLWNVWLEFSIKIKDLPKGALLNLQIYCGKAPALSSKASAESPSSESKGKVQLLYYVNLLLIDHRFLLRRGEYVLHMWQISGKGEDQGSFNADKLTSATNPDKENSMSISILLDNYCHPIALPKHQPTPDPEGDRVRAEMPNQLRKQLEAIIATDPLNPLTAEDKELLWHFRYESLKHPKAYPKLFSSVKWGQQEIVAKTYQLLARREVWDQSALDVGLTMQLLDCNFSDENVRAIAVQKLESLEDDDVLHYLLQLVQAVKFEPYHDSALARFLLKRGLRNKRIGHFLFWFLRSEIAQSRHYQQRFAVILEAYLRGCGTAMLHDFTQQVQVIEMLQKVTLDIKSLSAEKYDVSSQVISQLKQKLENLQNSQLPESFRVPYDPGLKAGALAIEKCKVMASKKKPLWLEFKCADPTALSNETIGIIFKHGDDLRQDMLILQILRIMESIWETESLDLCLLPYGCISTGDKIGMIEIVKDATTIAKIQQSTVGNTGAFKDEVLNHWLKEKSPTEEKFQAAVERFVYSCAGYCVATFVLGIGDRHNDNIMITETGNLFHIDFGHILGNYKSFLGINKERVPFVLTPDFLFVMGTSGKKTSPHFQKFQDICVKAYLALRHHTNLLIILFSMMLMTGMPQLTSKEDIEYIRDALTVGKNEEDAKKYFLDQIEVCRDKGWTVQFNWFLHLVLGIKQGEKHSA
Outline: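 Recombinant PI3Kγ (1.45 μg/ml final) preincubated ~10 min with compound, then reacted with 10 μM PIP2 and 10 μM ATP for 90 min at room temperature. PIP3 detected by HTRF (biotin-PIP3/Eu-PH domain/APC), 665/620 nm ratio after 6 h; IC50 from inhibition relative to controls.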

PI3Kα (p110α/p85α)(h) = PI3Kα (p110α/p85α)(h) (Homo sapiens, UniProt P42336); assay: Assay for phosphatidylinositol 3-kinase alpha (PI3Kα) activity, PI3K-HTRF kit; conditions: TR-FRET; enzyme 0.3625 μg/ml, 10 μM PIP2, 10 μM ATP
Chain of PI3Kα (p110α/p85α)(h) (P42336 whole entry): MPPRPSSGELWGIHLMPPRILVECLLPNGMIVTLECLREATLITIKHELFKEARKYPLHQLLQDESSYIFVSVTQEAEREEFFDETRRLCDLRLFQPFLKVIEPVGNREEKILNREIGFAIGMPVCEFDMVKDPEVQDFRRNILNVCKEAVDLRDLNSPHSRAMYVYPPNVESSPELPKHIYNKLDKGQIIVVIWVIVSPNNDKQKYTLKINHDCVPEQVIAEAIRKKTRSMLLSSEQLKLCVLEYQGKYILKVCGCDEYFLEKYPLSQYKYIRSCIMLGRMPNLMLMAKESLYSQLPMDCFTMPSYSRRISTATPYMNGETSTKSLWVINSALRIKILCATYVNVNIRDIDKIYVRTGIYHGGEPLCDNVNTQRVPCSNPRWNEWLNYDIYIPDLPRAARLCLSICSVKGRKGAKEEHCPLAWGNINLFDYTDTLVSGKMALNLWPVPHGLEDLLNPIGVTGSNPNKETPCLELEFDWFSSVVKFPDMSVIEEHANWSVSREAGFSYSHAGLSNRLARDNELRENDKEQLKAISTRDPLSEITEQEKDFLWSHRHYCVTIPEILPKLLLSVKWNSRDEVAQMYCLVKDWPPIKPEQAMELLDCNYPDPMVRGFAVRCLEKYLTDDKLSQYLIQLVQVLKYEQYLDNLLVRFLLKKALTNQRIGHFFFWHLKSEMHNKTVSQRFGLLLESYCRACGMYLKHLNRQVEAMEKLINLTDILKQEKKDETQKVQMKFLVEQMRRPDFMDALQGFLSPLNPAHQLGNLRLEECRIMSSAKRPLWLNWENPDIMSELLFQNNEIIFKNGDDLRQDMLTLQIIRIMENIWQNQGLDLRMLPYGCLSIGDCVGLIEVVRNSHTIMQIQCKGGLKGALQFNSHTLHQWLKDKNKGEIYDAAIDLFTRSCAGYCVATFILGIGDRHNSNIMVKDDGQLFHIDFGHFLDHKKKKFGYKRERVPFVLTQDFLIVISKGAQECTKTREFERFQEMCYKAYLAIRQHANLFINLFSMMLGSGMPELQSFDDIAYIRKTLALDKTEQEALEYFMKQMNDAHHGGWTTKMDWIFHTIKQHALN
Chain of PI3Kα (p110α/p85α)(h) (P27986 whole entry partner): as the sequence (P27986 whole entry partner) above

Chain of PI3K β (p110β/p85α)(h) (P42338 whole entry): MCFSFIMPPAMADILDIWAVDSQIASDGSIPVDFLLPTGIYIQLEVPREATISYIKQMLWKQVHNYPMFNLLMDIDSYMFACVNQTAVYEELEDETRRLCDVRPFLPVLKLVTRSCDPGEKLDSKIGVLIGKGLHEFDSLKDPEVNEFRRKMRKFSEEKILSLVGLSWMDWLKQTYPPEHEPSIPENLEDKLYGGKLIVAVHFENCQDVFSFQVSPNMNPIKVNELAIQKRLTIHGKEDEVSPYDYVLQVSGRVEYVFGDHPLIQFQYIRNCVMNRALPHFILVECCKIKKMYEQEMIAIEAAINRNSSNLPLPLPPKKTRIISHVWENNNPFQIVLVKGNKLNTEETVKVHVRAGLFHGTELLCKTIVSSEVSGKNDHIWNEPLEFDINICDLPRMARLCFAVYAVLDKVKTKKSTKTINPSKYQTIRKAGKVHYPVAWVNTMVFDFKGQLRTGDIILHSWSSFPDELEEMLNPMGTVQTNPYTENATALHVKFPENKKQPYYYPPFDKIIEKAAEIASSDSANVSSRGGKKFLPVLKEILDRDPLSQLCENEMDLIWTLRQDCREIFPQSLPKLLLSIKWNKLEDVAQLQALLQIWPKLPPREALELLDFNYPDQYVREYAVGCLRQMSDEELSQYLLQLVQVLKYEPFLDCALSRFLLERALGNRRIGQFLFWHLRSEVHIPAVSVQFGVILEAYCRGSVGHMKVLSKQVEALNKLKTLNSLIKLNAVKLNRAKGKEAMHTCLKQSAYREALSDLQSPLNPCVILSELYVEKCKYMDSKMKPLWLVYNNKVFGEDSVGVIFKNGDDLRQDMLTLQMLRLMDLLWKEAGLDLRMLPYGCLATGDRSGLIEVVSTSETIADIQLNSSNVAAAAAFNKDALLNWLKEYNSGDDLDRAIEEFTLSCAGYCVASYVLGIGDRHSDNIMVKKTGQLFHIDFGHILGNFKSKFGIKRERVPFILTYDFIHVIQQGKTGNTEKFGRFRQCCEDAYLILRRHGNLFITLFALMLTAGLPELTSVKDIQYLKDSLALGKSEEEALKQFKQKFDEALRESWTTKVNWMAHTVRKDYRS
Chain of PI3K β (p110β/p85α)(h) (P27986 whole entry partner): as the sequence (P27986 whole entry partner) above

Row | Molecule | IC50 (PI3K β (p110β/p85α)(h)) | IC50 (PI3Kδ (p110δ/p85α)(h)) | IC50 (PI3Kγ (p120γ)(h)) | IC50 (PI3Kα (p110α/p85α)(h))
1 | CN(C)S(=O)(=O)c1ccc(C#Cc2cncc3cc(/C=C4\SC(=S)NC4=O)oc23)cc1 [Example 571, (Z)—N,N-Dimethyl-4-([2-{(4-oxo-2-thioxothiazolidin-5-ylidene)methyl}furo[3,2-c]pyridin-7-yl]ethynyl)benzenesulfonamide] | 2410 nM | 78 nM | 15 nM | 1 nM
2 | COc1ccc(-c2cncc3cc(/C=C4\SC(=O)NC4=O)oc23)cc1OC [Example 33, (Z)-5-[{7-(3,4-Dimethoxyphenyl)furo[3,2-c]pyridin-2-yl}methylene]thiazolidine-2,4-dione] | 77 nM | 37 nM | 9 nM | 8 nM
3 | O=C1NC(=O)/C(=C/c2cc3cncc(-c4cc5ccccc5s4)c3o2)S1 [Example 14, (Z)-5-[{7-(Benzo[b]thiophen-2-yl)furo[3,2-c]pyridin-2-yl}methylene]thiazolidine-2,4-dione] | > 10000 nM | 149 nM | 29 nM | 6 nM
4 | Cn1cc(-c2cncc3cc(/C=C4\SC(=O)NC4=O)oc23)cn1 [Example 12, (Z)-5-[{7-(1-Methyl-1H-pyrazol-4-yl)furo[3,2-c]pyridin-2-yl}methylene]thiazolidine-2,4-dione] | 572 nM | > 10000 nM | 28 nM | 7 nM
5 | CN1CCN(Cc2ccc(-c3cncc4cc(/C=C5\SC(=O)NC5=O)oc34)cc2)CC1 [Example 134, (Z)-5-{(7-[4-{(4-Methylpiperazin-1-yl)methyl}phenyl]furo[3,2-c]pyridin-2-yl)methylene}thiazolidine-2,4-dione] | > 1000 nM | 54 nM | 344 nM | 95 nM
6 | O=C1NC(=O)/C(=C/c2cc3cncc(C#Cc4ccsc4)c3o2)S1 [Example 528, (Z)-5-[{7-(Thiophen-3-ylethynyl)furo[3,2-c]pyridin-2-yl}methylene]thiazolidine-2,4-dione] | 638 nM | 92 nM | 24 nM | 8 nM
7 | 5-[{7-(p-Tolylethynyl)furo[3,2-c]pyridin-2-yl}methyl]thiazolidine-2,4-dione [Example 520] | 9740 nM | > 10000 nM | 11 nM | 15 nM
8 | COC(=O)c1ccccc1C#Cc1cncc2cc(/C=C3\SC(=S)NC3=O)oc12 [Example 558, (Z)-Methyl 2-([2-{(4-oxo-2-thioxothiazolidin-5-ylidene)methyl}furo[3,2-c]pyridin-7-yl]ethynyl)benzoate] | 468 nM | 41 nM | 10 nM | 3 nM
9 | O=C1NC(=S)S/C1=C\c1cc2cncc(-c3cc(Cl)c(S(=O)(=O)N4CCOCC4)c(Cl)c3)c2o1 [Example 343, (Z)-5-([7-{3,5-Dichloro-4-(morpholinosulfonyl)phenyl}furo[3,2-c]pyridin-2-yl]methylene)-2-thioxothiazolidin-4-one] | > 10000 nM | 53 nM | 4 nM | 19 nM
10 | CSc1ccc(-c2cncc3cc(/C=C4\SC(=O)NC4=O)oc23)cc1 [Example 23, (Z)-5-([7-{4-(Methylthio)phenyl}furo[3,2-c]pyridin-2-yl]methylene)thiazolidine-2,4-dione] | > 10000 nM | > 10000 nM | 9 nM | 43 nM
11 | Cc1ccccc1C#Cc1cncc2cc(/C=C3\SC(=S)NC3=O)oc12 [Example 498, (Z)-2-Thioxo-5-[{7-(o-tolylethynyl)furo[3,2-c]pyridin-2-yl}methylene]thiazolidin-4-one] | 2270 nM | 618 nM | 7 nM | 2 nM
12 | CCOc1ccc(-c2cncc3cc(/C=C4\SC(=O)NC4=O)oc23)cc1Cl [Example 51, (Z)-5-[{7-(3-Chloro-4-ethoxyphenyl)furo[3,2-c]pyridin-2-yl}methylene]thiazolidine-2,4-dione] | > 10000 nM | > 10000 nM | 12 nM | 5 nM
13 | CN(C)S(=O)(=O)c1ccc(-c2cncc3cc(/C=C4\SC(=O)NC4=O)oc23)cc1F [Example 280, (Z)-4-[2-{(2,4-Dioxothiazolidin-5-ylidene)methyl}furo[3,2-c]pyridin-7-yl]-2-fluoro-N,N-dimethylbenzenesulfonamide] | 1110 nM | 3000 nM | 22 nM | 46 nM
14 | O=C1NC(=S)S/C1=C\c1cc2cncc(-c3ccc4c(c3)CCO4)c2o1 [Example 187, (Z)-5-[{7-(2,3-Dihydrobenzofuran-5-yl)furo[3,2-c]pyridin-2-yl}methylene]-2-thioxothiazolidin-4-one] | > 10000 nM | > 10000 nM | 10 nM | 5 nM
15 | COC(=O)c1cc(F)cc(-c2cncc3cc(/C=C4\SC(=S)NC4=O)oc23)c1 [Example 351, (Z)-Methyl 3-fluoro-5-[2-{(4-oxo-2-thioxothiazolidin-5-ylidene)methyl}furo[3,2-c]pyridin-7-yl]benzoate] | > 10000 nM | > 10000 nM | 9 nM | 4 nM
16 | CCOC(C#Cc1cncc2cc(/C=C3\SC(=S)NC3=O)oc12)OCC [Example 483, (Z)-5-[{7-(3,3-Diethoxypropyn-1-yl)furo[3,2-c]pyridin-2-yl}methylene]-2-thioxothiazolidin-4-one] | 184 nM | 113 nM | 33 nM | 23 nM
17 | O=C1NC(=O)/C(=C/c2cc3cncc(C(=O)NC4CCCCC4)c3o2)S1 [Example 422, (Z)—N-Cyclohexyl-2-{(2,4-dioxothiazolidin-5-ylidene)methyl}furo[3,2-c]pyridine-7-carboxamide] | 1230 nM | 1140 nM | 204 nM | 31 nM
18 | O=C1NC(=O)/C(=C/c2cc3cncc(-c4ccc(S(=O)(=O)N5CCCCC5)cc4)c3o2)S1 [Example 262, (Z)-5-([7-{4-(Piperidin-1-ylsulfonyl)phenyl}furo[3,2-c]pyridin-2-yl]methylene)thiazolidine-2,4-dione] | > 10000 nM | > 10000 nM | 38 nM | 33 nM
19 | COC(=O)c1cccc(C#Cc2cncc3cc(/C=C4\SC(=S)NC4=O)oc23)c1 [Example 569, (Z)-Methyl 3-([2-{(4-oxo-2-thioxothiazolidin-5-ylidene)methyl}furo[3,2-c]pyridin-7-yl]ethynyl)benzoate] | 5920 nM | 493 nM | 16 nM | 1 nM
20 | COc1cc(-c2cncc3cc(/C=C4\SC(=S)NC4=O)oc23)cc(Cl)c1O [Example 217, (Z)-5-[{7-(3-Chloro-4-hydroxy-5-methoxyphenyl)furo[3,2-c]pyridin-2-yl}-methylene]-2-thioxothiazolidin-4-one] | 77 nM | 563 nM | 3 nM | 1 nM
21 | Cc1ccccc1C#Cc1cncc2cc(/C=C3\SC(=O)NC3=O)oc12 [Example 454, (Z)-5-[{7-(o-Tolylethynyl)furo[3,2-c]pyridin-2-yl}methylene]thiazolidine-2,4-dione] | 466 nM | 143 nM | 7 nM | 1 nM
22 | O=C1NC(=O)/C(=C/c2cc3cncc(C#CC4CCCC4)c3o2)S1 [Example 435, (Z)-5-[{7-(Cyclopentylethynyl)furo[3,2-c]pyridin-2-yl}methylene]thiazolidine-2,4-dione] | 4340 nM | 4280 nM | 48 nM | 58 nM
23 | COc1ccc(NC(=O)c2cncc3cc(/C=C4\SC(=S)NC4=O)oc23)cc1 [Example 425, (Z)—N-(4-Methoxyphenyl)-2-{(4-oxo-2-thioxothiazolidin-5-ylidene)methyl}furo[3,2-c]pyridine-7-carboxamide] | 1140 nM | 8330 nM | 51 nM | 11 nM
24 | COc1ccc(C#Cc2cncc3cc(/C=C4\SC(=O)NC4=O)oc23)cc1 [Example 437, (Z)-5-([7-{(4-Methoxyphenyl)ethynyl}furo[3,2-c]pyridin-2-yl]methylene)thiazolidine-2,4-dione] | > 10000 nM | > 10000 nM | 9 nM | 8 nM
25 | COc1ncc(-c2cncc3cc(/C=C4\SC(=S)NC4=O)oc23)cc1C#N [Example 328, (Z)-2-Methoxy-5-[2-{(4-oxo-2-thioxothiazolidin-5-ylidene)methyl}furo[3,2-c]pyridin-7-yl]nicotinonitrile] | 630 nM | > 10000 nM | 56 nM | 15 nM
26 | O=C1NC(=O)/C(=C/c2cc3cncc(-c4cccc(NS(=O)(=O)c5ccccc5)c4)c3o2)S1 [Example 141, (Z)—N-(3-[2-{(2,4-Dioxothiazolidin-5-ylidene)methyl}furo[3,2-c]pyridin-7-yl]phenyl)benzenesulfonamide] | 23 nM | 51 nM | 108 nM | 21 nM
27 | COc1ccc(C#Cc2cncc3cc(/C=C4\SC(=O)NC4=O)oc23)cc1OC [Example 469, (Z)-5-([7-{(3,4-Dimethoxyphenyl)ethynyl}furo[3,2-c]pyridin-2-yl]methylene)thiazolidine-2,4-dione] | 5090 nM | 37 nM | 17 nM | 2 nM
